This passage reports IC50 results from PubChem BioAssay AID624167 (Sanford-Burnham Center for Chemical Genomics, 2012).

What all share (assay): Peg3 promoter luciferase inhibitors, potency, dose response, cell-based, HeLa, CREF/GAPDH counter-screen panel (AID 624167)
(The purpose of a counterscreen is to sort out artefacts and off-target activity.)

In assay [1] the test system is PEG-3. Conditions: HeLa PEG-Prom luciferase reporter, overnight, CREF/GAPDH counter-screens. For orientation: In a reporter assay the amount or activity of a reporter protein is the signal.
The target of assay [2] is PEG-3 (UniProt Q6IN02). Conditions: HeLa PEG-Prom luciferase reporter, overnight, CREF/GAPDH counter-screens, mean of runs.
A further assay deals with Rat fibroblasts (CREF). Conditions: CREF/GAPDH counter-screens.
The mark [3] stands for this setting: run 1, dose range 1, individual replicate IC50 per panel.
[4] abbreviates: run 2, dose range 1, individual replicate IC50 per panel.

Active and inactive are the calls of the source.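 The calls were made as follows: active = mean IC50 for reducing PEG3 promoter reporter signal at or below a set limit, with IC50 above the limit in both counter screens; inactive = the rest, including counter screen hits.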

Chain of PEG-3 (UniProt Q6IN02) (Q6IN02 whole entry, looked up): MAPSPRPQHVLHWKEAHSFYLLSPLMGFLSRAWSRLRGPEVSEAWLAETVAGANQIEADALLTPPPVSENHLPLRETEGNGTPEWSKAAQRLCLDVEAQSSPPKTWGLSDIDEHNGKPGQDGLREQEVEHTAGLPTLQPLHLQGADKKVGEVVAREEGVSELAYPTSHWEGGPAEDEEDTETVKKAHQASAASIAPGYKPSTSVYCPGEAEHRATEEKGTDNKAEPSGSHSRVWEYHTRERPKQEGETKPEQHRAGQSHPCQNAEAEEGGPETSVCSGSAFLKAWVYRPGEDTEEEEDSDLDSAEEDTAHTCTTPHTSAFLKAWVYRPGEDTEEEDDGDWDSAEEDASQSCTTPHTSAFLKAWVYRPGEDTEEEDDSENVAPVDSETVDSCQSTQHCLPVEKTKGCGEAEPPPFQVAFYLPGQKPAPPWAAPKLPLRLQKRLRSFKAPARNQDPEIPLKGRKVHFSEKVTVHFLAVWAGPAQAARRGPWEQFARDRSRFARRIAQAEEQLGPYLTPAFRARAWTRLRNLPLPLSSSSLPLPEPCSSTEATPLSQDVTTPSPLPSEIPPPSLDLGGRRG

The term IC50 denotes the concentration at which inhibition is half-maximal. Regarding `CC(=O)n1cc(N(C(=O)CCl)c2ccc(C)cc2)c2ccccc21`, the concentration for half-maximal inhibition (IC50) in the assay with PEG-3 [1] (setting [3]) is 11300 nM; with PEG-3 [1] (setting [4]) it was 7380 nM; at PEG-3 [2], 9360 nM; with Rat fibroblasts (CREF) (mean of runs), 3960 nM; in the assay with Rat fibroblasts (CREF) (setting [3]), 5380 nM; in the assay with Rat fibroblasts (CREF) (setting [4]) it was 2530 nM.
With `CCOc1ccc(NC(=O)c2ccccn2)cc1`, the IC50 in the assay on PEG-3 [1] (setting [3]) is 2890 nM; with PEG-3 [1] (setting [4]), 4040 nM; on PEG-3 [2] it was 3460 nM; in the assay on Rat fibroblasts (CREF) (mean of runs), 1280 nM; with Rat fibroblasts (CREF) (setting [3]) it was 921 nM; in the assay on Rat fibroblasts (CREF) (setting [4]), 1650 nM.
For `COc1cccc2nc3c(C(=O)NCCN(C)C)cccc3cc12`, the IC50 is 11200 nM in the assay on PEG-3 [1] (setting [3]); 7030 nM in the assay with PEG-3 [1] (setting [4]); 9140 nM at PEG-3 [2]; 8720 nM in the assay with Rat fibroblasts (CREF) (mean of runs); 12000 nM in the assay on Rat fibroblasts (CREF) (setting [3]); 5440 nM in the assay on Rat fibroblasts (CREF) (setting [4]).
For the compound `CCCOc1ccc2cc(-c3ccccn3)c(=O)oc2c1`, the IC50 is 2050 nM in the assay on PEG-3 [1] (setting [3]); 4960 nM with PEG-3 [1] (setting [4]); 3510 nM at PEG-3 [2]; 1330 nM with Rat fibroblasts (CREF) (mean of runs); 1090 nM in the assay with Rat fibroblasts (CREF) (setting [3]); 1580 nM in the assay with Rat fibroblasts (CREF) (setting [4]).
Consider `O=C(/C=C\Nc1ccc2c(c1)OCO2)c1ccccn1`, for which the 50% inhibitory concentration (IC50) was 1150 nM in the assay with PEG-3 [1] (setting [3]); 1870 nM in the assay on PEG-3 [1] (setting [4]); 1510 nM at PEG-3 [2]; 1090 nM with Rat fibroblasts (CREF) (mean of runs); 1040 nM in the assay with Rat fibroblasts (CREF) (setting [3]); 1140 nM in the assay with Rat fibroblasts (CREF) (setting [4]).
`COc1ccc(C(=O)/C=C/Nc2ccccn2)cc1`: the IC50 in the assay with PEG-3 [1] (setting [3]) was 2020 nM; in the assay on PEG-3 [1] (setting [4]) it was 3180 nM; at PEG-3 [2], 2600 nM; in the assay with Rat fibroblasts (CREF) (mean of runs), 3610 nM; in the assay with Rat fibroblasts (CREF) (setting [3]), 3450 nM; in the assay on Rat fibroblasts (CREF) (setting [4]), 3770 nM.
Take `Cc1ccc(-c2cc3c(N=O)c4ccccc4c-3n[nH]2)cc1`: the IC50 in the assay on PEG-3 [1] (setting [3]) is 1200 nM; in the assay with PEG-3 [1] (setting [4]), 860 nM; on PEG-3 [2], 1030 nM; in the assay on Rat fibroblasts (CREF) (mean of runs), 18800 nM; with Rat fibroblasts (CREF) (setting [3]), 2730 nM; in the assay with Rat fibroblasts (CREF) (setting [4]), 34900 nM.
For `Cc1cc(C(=O)CN2C(=O)c3ccccc3S2(=O)=O)c(C)n1-c1ccccc1`, the IC50 in the assay on PEG-3 [1] (setting [3]) was 2980 nM; in the assay on PEG-3 [1] (setting [4]), 3750 nM; on PEG-3 [2], 3360 nM; in the assay with Rat fibroblasts (CREF) (mean of runs), 7330 nM; in the assay with Rat fibroblasts (CREF) (setting [3]), 6790 nM; in the assay with Rat fibroblasts (CREF) (setting [4]), 7880 nM.
In the case of `CCOc1ccc(NC(=O)Nc2cccc(C(=O)O)c2)cc1`, the IC50 with PEG-3 [1] (setting [3]) was 2900 nM; in the assay with PEG-3 [1] (setting [4]), 3580 nM; on PEG-3 [2], 3240 nM; with Rat fibroblasts (CREF) (mean of runs) it was 4090 nM; with Rat fibroblasts (CREF) (setting [3]), 3070 nM; in the assay with Rat fibroblasts (CREF) (setting [4]), 5100 nM.
As for `CCOC(=O)c1cnc(Nc2nc3ccccc3o2)nc1C`, the 50% inhibitory concentration (IC50) with PEG-3 [1] (setting [3]) was 1170 nM; with PEG-3 [1] (setting [4]), 2320 nM; at PEG-3 [2], 1750 nM; in the assay on Rat fibroblasts (CREF) (mean of runs), 1320 nM; in the assay on Rat fibroblasts (CREF) (setting [3]), 1270 nM; in the assay with Rat fibroblasts (CREF) (setting [4]), 1370 nM.
On to `O=C(NCCc1ccccc1)c1ccc2c(c1)OCCO2`, for which the IC50 in the assay on PEG-3 [1] (setting [3]) was 646 nM; in the assay with PEG-3 [1] (setting [4]) it was 625 nM; at PEG-3 [2], 636 nM; in the assay on Rat fibroblasts (CREF) (mean of runs), 1730 nM; in the assay on Rat fibroblasts (CREF) (setting [3]) it was 1360 nM; in the assay on Rat fibroblasts (CREF) (setting [4]), 2100 nM.
Turning to `CN=c1scc(-c2ccccc2F)n1/N=C/c1ccc[nH]1`, the IC50 in the assay on PEG-3 [1] (setting [3]) is 4900 nM; in the assay on PEG-3 [1] (setting [4]) it was greater than 100000 nM; in the assay on Rat fibroblasts (CREF) (mean of runs), 4520 nM; in the assay with Rat fibroblasts (CREF) (setting [3]), 4400 nM; in the assay with Rat fibroblasts (CREF) (setting [4]), 4630 nM. In addition, the IC50 result at PEG-3 [2] is “inactive”.
In the case of `CCOc1ccc(OCc2cccc(C(=O)O)c2)cc1`, the IC50 in the assay with PEG-3 [1] (setting [3]) was 232 nM; in the assay with PEG-3 [1] (setting [4]), 487 nM; on PEG-3 [2] it was 359 nM; with Rat fibroblasts (CREF) (mean of runs), 3740 nM; in the assay with Rat fibroblasts (CREF) (setting [3]), 3880 nM; in the assay with Rat fibroblasts (CREF) (setting [4]), 3600 nM.
In the case of `Cc1ccc(C(=O)Nc2cc3ccccc3oc2=O)cc1`, the IC50 was 327 nM in the assay on PEG-3 [1] (setting [3]); 1000 nM in the assay on PEG-3 [1] (setting [4]); 665 nM at PEG-3 [2]; 1660 nM in the assay on Rat fibroblasts (CREF) (mean of runs); 409 nM in the assay on Rat fibroblasts (CREF) (setting [3]); 2900 nM in the assay with Rat fibroblasts (CREF) (setting [4]).
On to `Cc1cc(S(=O)(=O)c2ccc(Cl)cc2)nc(S(=O)(=O)c2ccc(Cl)cc2)c1C#N`, for which the IC50 in the assay with PEG-3 [1] (setting [3]) is 6140 nM; in the assay with PEG-3 [1] (setting [4]), 4140 nM; on PEG-3 [2] it was 5140 nM; in the assay with Rat fibroblasts (CREF) (mean of runs), 13100 nM; in the assay with Rat fibroblasts (CREF) (setting [3]), 10900 nM; in the assay on Rat fibroblasts (CREF) (setting [4]), 15300 nM.
Regarding `Cc1cnc(NC(=O)c2ccc3c(c2)OCCO3)s1`, the IC50 was 647 nM in the assay on PEG-3 [1] (setting [3]); greater than 100000 nM in the assay on PEG-3 [1] (setting [4]); 454 nM with Rat fibroblasts (CREF) (mean of runs); 378 nM in the assay with Rat fibroblasts (CREF) (setting [3]); 530 nM with Rat fibroblasts (CREF) (setting [4]). Moreover, the IC50 entry on PEG-3 [2] is “inactive”.
On to `O=C(c1ccc(Cl)cc1)N1CCCCC(Sc2nnc(-c3ccc4c(c3)OCO4)o2)C1=O` (configuration not stated), for which the IC50 with PEG-3 [1] (setting [3]) was 669 nM; in the assay with PEG-3 [1] (setting [4]), 3910 nM; on PEG-3 [2], 2290 nM; in the assay with Rat fibroblasts (CREF) (mean of runs) it was 2250 nM; with Rat fibroblasts (CREF) (setting [3]), 3870 nM; in the assay with Rat fibroblasts (CREF) (setting [4]), 643 nM.
